Values joined by “and” are separate entries in the source; they are usually repeats but may differ in a detail not shown here. Identical values can stand only once.
What was measured:
LHGFR0N7C [1] = test: Specificity of purified LHGFR0N7C, emission ratio with 240 μM compounds; assay type: binding, Pseudomonas putida W619; settings: 240 μM compound
[2] = test system: LHGFR3N7C expressed in E. coli BL21(DE3); test: Control biosensor LHGFR3N7C expressed in E. coli, response to added compounds; assay type: cell-based; settings: Supplementary Fig. 14a
Method: (§1) To characterize the sensitivity and specificity of LHGFR expressed in E. coli BL21(DE3), 90 μL cell suspensions following 8 h carbon starvation were mixed with 10 μL increasing concentrations of L-2-HG or other compounds, and then added into a black 96-well plate (total 100 μL/per well), the fluorescence intensities were determined using an EnSight microplate reader (PerkinElmer, USA) and the following instrument settings: excitation at 430 nm, emission at 485 nm (mTFP) and 528 nm (Venus), time intervals of 5 min, the temperature at 37 °C, and shake at 180 rpm.

[3] = test system: LHGFR0N3C expressed in E. coli BL21(DE3); test: Specificity of LHGFR0N3C expressed in E. coli BL21(DE3), 1 mM compounds; assay type: cell-based; settings: for Emission ratio: 1 mM compound, Fig. 5c
Method: as §1

LHGFR0N7C [4] = test: Influence of other compounds on the response of purified LHGFR0N7C to L-2-HG; assay type: binding, Pseudomonas putida W619; settings: L-2-HG concentration 0.01; in the absence of 2-KG; Suppl. Fig. 9h
How it was run: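 Purified L-2-HG biosensors were mixed 3:1 with test compounds in 50 mM Tris-HCl pH 7.4, excited at 430 nm, and the 528 nm (Venus)/485 nm (mTFP) emission was read. Responses were fitted with a Hill model giving apparent Kd and Hill slope.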

`O=C(O)CC[C@H](O)C(=O)O` [L-2-HG, L-2-Hydroxyglutarate] was tested, and the Emission ratio (LHGFR0N7C [1]) was 2.5923 and 2.613 and 2.627, the “normalized emission ratio of control biosensor expressed in E. coli” value (“normalized emission ratio” below) ([2]; time 0 min) was 1.025 and 0.9958 and 0.9991 and 1.005 and the “normalized emission ratio” value ([2]; time 5 min) was 1.029 and 0.9977 and 0.9908 and 1.001. For the same compound, the “normalized emission ratio” value ([2]; time 10 min) was 1.016 and 0.9993 and 0.9928 and 0.996, the “normalized emission ratio” value ([2]; time 15 min) was 1.012 and 0.9858 and 0.9895 and 0.9948 and the “normalized emission ratio” value ([2]; time 20 min) was 1.006 and 0.9892 and 0.9883 and 1.004. For the same compound, the “normalized emission ratio” value ([2]; time 25 min) was 1.005 and 0.9958 and 0.9871 and 1.006, the “normalized emission ratio” value ([2]; time 30 min) was 1.009 and 0.9836 and 0.9873 and 0.9978 and the “normalized emission ratio” value ([2]; time 35 min) was 1.002 (2×) and 0.988 and 0.9805. The “normalized emission ratio” value ([2]; time 40 min) was 1.005 and 0.9884 and 0.9838 and 1.008, the “normalized emission ratio” value ([2]; time 45 min) was 1.011 and 0.9924 and 0.993 and 1.004 and the “normalized emission ratio” value ([2]; time 50 min) was 0.997 and 0.991 and 0.9858 and 1.009. For the same compound, the “normalized emission ratio” value ([2]; time 55 min) was 1.0056 and 0.9921 and 0.9909 and 1.012, the “normalized emission ratio” value ([2]; time 60 min) was 1.003 and 0.9967 and 0.9937 and 1.007 and the “normalized emission ratio” value ([2]; time 65 min) was 0.9962 (2×) and 0.991 and 1.017. The “normalized emission ratio” value ([2]; time 70 min) was 1.013 and 1.001 and 0.9947 and 1.016, the “normalized emission ratio” value ([2]; time 75 min) was 1.004 and 0.9948 and 0.9987 and 1.025 and the “normalized emission ratio” value ([2]; time 80 min) was 1.011 and 1.0052 and 1.01 and 1.025. For the same compound, the “normalized emission ratio” value ([2]; time 85 min) was 1.015 and 0.9941 and 1.005 and 1.023, the “normalized emission ratio” value ([2]; time 90 min) was 1.028 and 1.011 and 1.01 and 1.022 and the Emission ratio ([3]; 0 min) was 1.025 and 0.9964 and 0.9897. The Emission ratio ([3]; 5 min) was 1.0102 and 1.019 and 1.007, the Emission ratio ([3]; 10 min) was 1.0776 and 1.069 and 1.057 and the Emission ratio ([3]; 15 min) was 1.152 and 1.136 and 1.118. The Emission ratio ([3]; 20 min) was 1.219 and 1.203 and 1.181, the Emission ratio ([3]; 25 min) was 1.256 and 1.2441 and 1.233 and the Emission ratio ([3]; 30 min) was 1.305 and 1.29 and 1.273. The Emission ratio ([3]; 35 min) was 1.298 and 1.29 and 1.292, the Emission ratio ([3]; 40 min) was 1.314 and 1.317 and 1.304 and the Emission ratio ([3]; 45 min) was 1.326 and 1.316 and 1.3122. For the same compound, the Emission ratio ([3]; 50 min) was 1.332 and 1.331 and 1.305, the Emission ratio ([3]; 55 min) was 1.343 and 1.33 and 1.32 and the Emission ratio ([3]; 60 min) was 1.3375 and 1.331 and 1.312. The Emission ratio ([3]; 65 min) was 1.326 and 1.339 and 1.336, the Emission ratio ([3]; 70 min) was 1.339 and 1.343 and 1.334 and the Emission ratio ([3]; 75 min) was 1.32 and 1.336 and 1.325. For the same compound, the Emission ratio ([3]; 80 min) was 1.332 and 1.339 and 1.343, the Emission ratio ([3]; 85 min) was 1.326 and 1.34 and 1.332 and the Emission ratio ([3]; 90 min) was 1.323 and 1.316 and 1.34. For the same compound, the “Increase of the emission ratio in E. coli BL21(DE3)” value ([3]; 1 mM exogenous compound) was “could significantly increase the emission ratio” and the “Emission ratio of 528/485” value (LHGFR0N7C [4]) was 1.669 and 1.681 and 1.673.

Source: PMC8206213, “An L-2-hydroxyglutarate biosensor based on specific transcriptional regulator LhgR” (Nature Communications, 2021)
